Data as given in paper PMC8119212 (JCI Insight, 2021).
“Also recorded” adds a separate entry of the source.

Tests used:
[1] = target: ALK2 (WT) GS and kinase domain (Homo sapiens, UniProt Q04771); assay: DSF thermal shift, wild-type ALK2; assay type: binding
[2] = system: ACVR1^Q207D-transgenic mouse (CAG-Z-eGFP-caALK2-Tg); assay: ACVR1^Q207D-Tg mouse model of heterotopic ossification; details: for mobility (passive range of motion): 6 mg/kg intraperitoneally twice daily, not shown
Excerpt: In these animals, activation of the ACVR1^Q207D transgene and associated GFP reporter is mediated by a single intramuscular injection of Adenovirus expressing Cre recombinase (Ad.Cre) in the left hindlimb on P7. This induces the expression of the human ACVR1^Q207D transgene, as well as muscle necrosis and inflammation, which together result in the formation of heterotopic bone lesions within 7–10 days following Ad.Cre injection ([16]). This model is believed to recapitulate aspects of clinical HO and FOP, in which muscle injury and inflammation potentiate the formation of heterotopic bone in soft tissues.
(D) Representative hindlimb scoring system. All range of motion scoring was performed by 2 separate operators who were blinded to the treatment condition of the animal.
Mice were maintained in accordance with IACUC guidelines under approved experimental protocols. Cre-inducible ACVR1^Q207D (CAG-Z-eGFP-caACVR1-Tg) transgenic mice were a gift from Yuji Michina (University of Michigan, Ann Arbor, Michigan, USA) as previously described ([31]). Acvr1^[R206H]FlEx/+ mice were generated as previously described ([13]). Heterotopic bone formation in these mice was introduced via single retro-popliteal injection of adenoviral Cre-recombinase at 1 × 10^8 PFU at P7. […] Bone formation as a function of a loss of passive range of motion, via dorsiflexion of the left ankle joint was assessed daily. Scores were assessed by 2 independent observers blinded to genotype and treatment. […] To monitor the progression of HO during the in vivo studies, x-ray radiographs were also imaged at various time points. Mice were anesthetized using ketamine at 100 mg/kg and imaged nonterminally in the prone position with tibial lateralization and hip abduction, allowing for reproducible positioning. Radiographs were obtained using 30-second scans and 50 kV exposures (MS FX In Vivo Pro: Carestream Imaging). […] After reconstruction, regions of interest were chosen and exported into DICOM format, and analyzed by Osirix analysis software. Fixed soft tissues and bone were stained with alizarin red and Alcian blue as previously described ([62]).

zebrafish embryos = assay: Zebrafish embryo dorsalization; assay type: in vivo; details: incubation starting at 0.5 hours after fertilization
Method: Dorsoventral axis specification during embryogenesis is regulated by the activity of BMP signaling agonists and antagonists ([30]).
Zebrafish embryos were treated with varying inhibitor concentrations from less than or equal to 0.5 hours after fertilization. Inhibitor stocks (20 mM) were diluted in fish water from DMSO. Embryos were scored according to Mullins et al. ([61]).

[3] = target: T1, recombinant ALK3 kinase domain (Homo sapiens, UniProt P36894); assay: LANCE Ultra TR-FRET kinase assay, ALK3; assay type: biochemical; details: 10 nM kinase, 50 μM peptide substrate, 10 μM ATP
T1 construct: purified recombinant ALK1-6 kinase domains; purchased Carna Bioscience 09-134
Excerpt: (§1) Data shown are plotted as mean ± SD. (n = 3 independent replicates). […] (n = 3 replicates). […] Data shown are plotted as mean ± SD. (n ≥ 3 independent replicates).
(§2) Recombinant ALK1 was obtained from Life Technology (catalog PV4883). Recombinant ALK2 to ALK6 were purchased from Carna Bioscience (catalog 09-134). A LANCE Ultra TR-FRET kinase assay was used for measurements of enzyme activities that included a ULight-labeled (Thr-1342) peptide substrate (catalog TRF0130-M, PerkinElmer) and a Europium-labeled anti-phospho peptide antibody (catalog TRF0218-M). The kinase reaction was carried out in a buffer containing 10 mM MgCl2, 3 mM MnCl2, 0.005% Tween-20, 2 mM DTT, and 50 mM HEPES, pH 7.0. The details of the enzyme assays will be reported in a separate paper (our unpublished observations). Briefly, 2.5 μL/well kinase protein (10 nM final) was dispensed to a white solid 1536-well plate followed by addition of 23 nL/well compound diluted in DMSO using a Pin-tool station (Wako-Kalypsis). After a 10-minute incubation at room temperature, 2.5 μL/well substrate solution (50 μM peptide and 10 μM ATP, final) was added, and the assay plate was incubated for 60 minutes at room temperature. […] The signals of time-resolved fluorescence resonance energy transfer (TR-FRET) assay were measured in an Envision plate reader (PerkinElmer) with a TR-FRET mode (Ex = 320, Em1 = 665, and Em2 = 615 nm).

[4] = target: T2, recombinant ALK1 kinase domain (Homo sapiens, UniProt P37023); assay: LANCE Ultra TR-FRET kinase assay, ALK1; assay type: biochemical; details: 10 nM kinase, 50 μM peptide substrate, 10 μM ATP
T2 construct: purified recombinant ALK1-6 kinase domains; purchased Life Technology PV4883
Excerpt: as §1, §2

ARG (ABL2) = ARG (ABL2) (Homo sapiens, UniProt P42684); assay: Caliper kinase profiling (Nanosyn), ARG; assay type: biochemical
TGF-β signaling = assay: cells; details: Homo sapiens, MDA-MB-231
C2C12 cells = details: mouse
Method: (§3) Inhibition of the BMP receptors caALK1, caALK2, and caALK3 was assessed via the activity of a BMP-response element LUC reporter (BRE-Luc) stably expressed in the C2C12 cell line, whereas the activin (caALK4) and TGF-β (caALK5) receptors were profiled via a CAGA-Luc reporter construct stably expressed in HEK293 cells (Figure 2B). […] Cell viability was assayed with an MTT (3-[4,5-dimethylthiazol-2-yl]-2,5-diphenyl tetrazolium bromide) colorimetric assay (Promega) per the manufacturer’s instructions.
(§4) lines was determined using the MTT cell viability assay . Data were plotted as mean + S.E.M. and
(§5) (1 picture or pasted object on this page, not shown here)

HEK293 cells = details: human
Method: as §3, §4, §5

[5] = system: TGF-β–dependent phosphorylation of SMAD2; details: C2C12 cells; Western blot
RIPK2 = RIPK2 (Homo sapiens, UniProt O43353); assay: Caliper kinase profiling (Nanosyn), RIPK2; assay type: biochemical
[6] = cited from earlier work
TNIK = TNIK (Homo sapiens, UniProt Q9UKE5); assay: Caliper kinase profiling (Nanosyn), TNIK; assay type: biochemical
[7] = target: T3, recombinant ALK6 kinase domain (Homo sapiens, UniProt O00238); assay: LANCE Ultra TR-FRET kinase assay, ALK6; assay type: biochemical; details: 10 nM kinase, 50 μM peptide substrate, 10 μM ATP
T3 construct: purified recombinant ALK1-6 kinase domains; purchased Carna Bioscience 09-134
Excerpt: as §1, §2

[8] = target: T4, recombinant ALK5 kinase domain (Homo sapiens, UniProt P36897); assay: LANCE Ultra TR-FRET kinase assay, ALK5; assay type: biochemical; details: 10 nM kinase, 50 μM peptide substrate, 10 μM ATP
T4 construct: purified recombinant ALK1-6 kinase domains; purchased Carna Bioscience 09-134

[9] = target: T5, recombinant ALK4 kinase domain (Homo sapiens, UniProt P36896); assay: LANCE Ultra TR-FRET kinase assay, ALK4; assay type: biochemical; details: 10 nM kinase, 50 μM peptide substrate, 10 μM ATP
T5 construct: purified recombinant ALK1-6 kinase domains; purchased Carna Bioscience 09-134

[10] = system: BMP7-induced phosphorylation of SMAD1/5; assay: Western blot, BMP7-induced phospho-SMAD1/5 in C2C12 cells; details: 100 nM saracatinib
HCK = HCK (Homo sapiens, UniProt P08631); assay: Caliper kinase profiling (Nanosyn), HCK; assay type: biochemical
BMP2 signaling = assay: cells; details: Homo sapiens, MDA-MB-231
Method: (§6) Reactions contained 10 nM kinase, 50 μM peptide substrate, and 10 μM ATP. Data shown are plotted as mean ± SD. (n = 3 independent replicates). […] Data shown are representative of more than 3 independent experiments, with data plotted as mean ±SEM. (n = 3 replicates). […] Data shown are plotted as mean ± SD. (n ≥ 3 independent replicates).
(§7) For subsequent investigations of ligand-dependent receptor signaling we used MDA-MB-231 cells stably expressing either the BRE-Luc or CAGA-Luc construct.
(§8) MDA-MB-231 cells stably expressing BRE-Luc or CAGA-Luc were generously provided by Caroline Hill (Francis Crick Institute). […] LUC activity was measured using the Promega Dual LUC Reporter Assay system and percentage activity determined compared with cells treated with growth factor and no inhibitor. Growth factors (Peprotech) were used at the following concentrations: 500 ng/mL BMP2, 10 ng/mL BMP4, 500 ng/mL BMP6, 500 ng/mL BMP7, 4 ng/mL TGF-β, and 200 ng/mL activin A. Experiments were repeated at least 3 times and plotted as mean ± SD.

BMP6 signaling = assay: cells; details: Homo sapiens, MDA-MB-231
Method: as §6, §7, §8

BMP7 signaling = assay: cells; details: Homo sapiens, MDA-MB-231
Method: as §6, §7, §8

BMP4 signaling = assay: cells; details: Homo sapiens, MDA-MB-231
Method: as §6, §7, §8

activin A signaling = assay: cells; details: Homo sapiens, MDA-MB-231
Method: as §6, §7, §8

LYN = LYN (Homo sapiens, UniProt P07948); assay: Caliper kinase profiling (Nanosyn), LYN; assay type: biochemical

Chain of ALK2 (WT) GS and kinase domain (Q04771 172-499): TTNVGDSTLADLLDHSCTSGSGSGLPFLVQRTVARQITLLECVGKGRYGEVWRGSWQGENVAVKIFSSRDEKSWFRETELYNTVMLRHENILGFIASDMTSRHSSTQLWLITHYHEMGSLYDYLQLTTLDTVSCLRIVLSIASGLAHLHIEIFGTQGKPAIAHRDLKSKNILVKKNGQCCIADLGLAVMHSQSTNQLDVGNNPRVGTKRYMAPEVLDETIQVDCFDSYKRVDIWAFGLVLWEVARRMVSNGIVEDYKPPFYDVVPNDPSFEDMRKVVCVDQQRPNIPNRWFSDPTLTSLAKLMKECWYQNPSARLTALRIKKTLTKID
Chain of RIPK2 (O43353 whole entry): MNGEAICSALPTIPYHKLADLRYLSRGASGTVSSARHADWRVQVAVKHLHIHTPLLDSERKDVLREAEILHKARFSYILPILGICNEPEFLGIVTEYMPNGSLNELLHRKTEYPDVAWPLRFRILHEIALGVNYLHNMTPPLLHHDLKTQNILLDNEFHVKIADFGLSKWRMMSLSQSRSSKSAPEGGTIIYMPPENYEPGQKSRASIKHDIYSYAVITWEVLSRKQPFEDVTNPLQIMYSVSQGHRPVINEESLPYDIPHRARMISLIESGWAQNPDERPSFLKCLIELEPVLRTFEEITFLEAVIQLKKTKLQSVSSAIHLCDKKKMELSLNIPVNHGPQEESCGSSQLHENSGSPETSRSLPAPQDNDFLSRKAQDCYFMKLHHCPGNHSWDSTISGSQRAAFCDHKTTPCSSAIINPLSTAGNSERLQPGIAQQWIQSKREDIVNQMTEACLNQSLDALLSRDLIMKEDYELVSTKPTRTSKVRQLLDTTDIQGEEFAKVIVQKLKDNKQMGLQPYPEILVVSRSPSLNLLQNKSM
Chain of TNIK (Q9UKE5 whole entry, the tested form may be a part): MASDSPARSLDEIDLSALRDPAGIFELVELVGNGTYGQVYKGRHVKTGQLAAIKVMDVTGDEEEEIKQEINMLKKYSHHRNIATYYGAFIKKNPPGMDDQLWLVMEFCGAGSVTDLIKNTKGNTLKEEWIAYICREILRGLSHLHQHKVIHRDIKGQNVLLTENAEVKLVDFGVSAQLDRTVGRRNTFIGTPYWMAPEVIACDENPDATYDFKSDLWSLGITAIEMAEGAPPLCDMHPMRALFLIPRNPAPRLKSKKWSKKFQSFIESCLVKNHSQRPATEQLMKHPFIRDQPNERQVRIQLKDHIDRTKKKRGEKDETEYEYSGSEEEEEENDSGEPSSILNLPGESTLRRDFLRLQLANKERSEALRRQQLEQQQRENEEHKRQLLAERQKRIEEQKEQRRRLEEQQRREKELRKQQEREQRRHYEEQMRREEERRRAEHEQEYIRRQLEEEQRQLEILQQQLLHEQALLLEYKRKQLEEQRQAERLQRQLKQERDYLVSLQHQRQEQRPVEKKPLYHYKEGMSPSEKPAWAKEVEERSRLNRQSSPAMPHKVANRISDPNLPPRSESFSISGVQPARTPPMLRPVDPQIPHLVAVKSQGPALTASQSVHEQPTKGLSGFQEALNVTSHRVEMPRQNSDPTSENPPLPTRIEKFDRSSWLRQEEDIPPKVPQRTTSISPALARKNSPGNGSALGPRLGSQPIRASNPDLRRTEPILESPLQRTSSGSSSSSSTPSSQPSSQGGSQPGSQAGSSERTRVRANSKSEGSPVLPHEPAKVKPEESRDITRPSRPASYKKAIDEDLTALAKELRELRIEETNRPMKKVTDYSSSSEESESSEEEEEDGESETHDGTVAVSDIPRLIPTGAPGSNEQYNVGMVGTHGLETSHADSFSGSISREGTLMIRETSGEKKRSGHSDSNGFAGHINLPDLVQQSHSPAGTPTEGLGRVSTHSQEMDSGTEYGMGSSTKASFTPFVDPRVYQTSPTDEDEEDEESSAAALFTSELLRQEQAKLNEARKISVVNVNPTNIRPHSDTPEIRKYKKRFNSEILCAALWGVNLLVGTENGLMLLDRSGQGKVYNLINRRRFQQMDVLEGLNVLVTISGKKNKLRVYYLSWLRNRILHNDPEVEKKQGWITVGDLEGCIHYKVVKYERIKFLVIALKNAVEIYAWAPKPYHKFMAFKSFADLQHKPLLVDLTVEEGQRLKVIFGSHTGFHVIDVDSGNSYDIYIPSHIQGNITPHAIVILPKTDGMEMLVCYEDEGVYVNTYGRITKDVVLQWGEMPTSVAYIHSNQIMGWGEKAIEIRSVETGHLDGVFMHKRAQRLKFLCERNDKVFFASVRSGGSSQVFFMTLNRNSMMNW
Chain of ARG (ABL2) (P42684 whole entry): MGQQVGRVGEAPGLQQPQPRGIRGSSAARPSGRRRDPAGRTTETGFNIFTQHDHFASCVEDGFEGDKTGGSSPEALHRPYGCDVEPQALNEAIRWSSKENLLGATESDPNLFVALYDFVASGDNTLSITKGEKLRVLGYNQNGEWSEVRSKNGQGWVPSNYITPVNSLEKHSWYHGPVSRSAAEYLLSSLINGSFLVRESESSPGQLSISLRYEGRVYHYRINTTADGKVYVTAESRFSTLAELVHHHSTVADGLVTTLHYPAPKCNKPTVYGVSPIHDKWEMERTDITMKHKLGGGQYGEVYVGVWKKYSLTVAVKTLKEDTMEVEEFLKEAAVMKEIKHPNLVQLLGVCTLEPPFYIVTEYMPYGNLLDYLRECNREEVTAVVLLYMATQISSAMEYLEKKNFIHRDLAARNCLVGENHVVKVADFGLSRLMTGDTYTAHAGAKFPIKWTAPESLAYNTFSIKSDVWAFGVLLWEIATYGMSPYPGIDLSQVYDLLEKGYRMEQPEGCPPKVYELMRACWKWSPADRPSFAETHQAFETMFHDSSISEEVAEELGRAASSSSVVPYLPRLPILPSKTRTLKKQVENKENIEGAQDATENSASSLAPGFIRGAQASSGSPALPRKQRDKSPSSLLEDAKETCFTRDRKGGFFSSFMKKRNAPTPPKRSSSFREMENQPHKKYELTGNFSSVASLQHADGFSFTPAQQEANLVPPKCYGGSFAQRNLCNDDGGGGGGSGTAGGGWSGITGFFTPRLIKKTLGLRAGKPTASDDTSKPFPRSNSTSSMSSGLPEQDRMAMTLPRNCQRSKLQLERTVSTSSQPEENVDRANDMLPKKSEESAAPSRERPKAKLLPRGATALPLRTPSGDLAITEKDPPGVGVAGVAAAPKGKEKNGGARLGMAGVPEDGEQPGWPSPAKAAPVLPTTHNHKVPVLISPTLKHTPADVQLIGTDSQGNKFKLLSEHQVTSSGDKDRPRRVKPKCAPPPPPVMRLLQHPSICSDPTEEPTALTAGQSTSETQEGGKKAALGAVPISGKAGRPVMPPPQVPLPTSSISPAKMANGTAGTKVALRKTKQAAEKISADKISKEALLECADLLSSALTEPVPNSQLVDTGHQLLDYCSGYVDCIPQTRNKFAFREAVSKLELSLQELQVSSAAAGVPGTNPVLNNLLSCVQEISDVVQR
T4 sequence (P36897 205-495 limits assumed): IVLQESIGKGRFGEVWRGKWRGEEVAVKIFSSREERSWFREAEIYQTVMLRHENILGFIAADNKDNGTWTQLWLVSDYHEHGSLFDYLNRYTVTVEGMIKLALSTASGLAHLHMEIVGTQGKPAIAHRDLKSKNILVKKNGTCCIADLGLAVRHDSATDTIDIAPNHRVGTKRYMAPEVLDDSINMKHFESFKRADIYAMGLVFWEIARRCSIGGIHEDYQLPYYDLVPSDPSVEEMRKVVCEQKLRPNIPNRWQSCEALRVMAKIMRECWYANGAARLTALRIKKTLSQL
T3 sequence (O00238 204-494 limits assumed): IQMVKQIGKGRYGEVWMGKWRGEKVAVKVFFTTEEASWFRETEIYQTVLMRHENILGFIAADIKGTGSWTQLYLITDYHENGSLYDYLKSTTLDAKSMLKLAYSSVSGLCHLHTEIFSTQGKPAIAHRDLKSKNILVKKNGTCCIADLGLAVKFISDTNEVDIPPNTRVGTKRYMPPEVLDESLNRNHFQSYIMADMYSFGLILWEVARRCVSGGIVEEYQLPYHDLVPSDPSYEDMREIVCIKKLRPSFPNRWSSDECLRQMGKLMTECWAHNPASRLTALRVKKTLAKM
Chain of HCK (P08631 whole entry): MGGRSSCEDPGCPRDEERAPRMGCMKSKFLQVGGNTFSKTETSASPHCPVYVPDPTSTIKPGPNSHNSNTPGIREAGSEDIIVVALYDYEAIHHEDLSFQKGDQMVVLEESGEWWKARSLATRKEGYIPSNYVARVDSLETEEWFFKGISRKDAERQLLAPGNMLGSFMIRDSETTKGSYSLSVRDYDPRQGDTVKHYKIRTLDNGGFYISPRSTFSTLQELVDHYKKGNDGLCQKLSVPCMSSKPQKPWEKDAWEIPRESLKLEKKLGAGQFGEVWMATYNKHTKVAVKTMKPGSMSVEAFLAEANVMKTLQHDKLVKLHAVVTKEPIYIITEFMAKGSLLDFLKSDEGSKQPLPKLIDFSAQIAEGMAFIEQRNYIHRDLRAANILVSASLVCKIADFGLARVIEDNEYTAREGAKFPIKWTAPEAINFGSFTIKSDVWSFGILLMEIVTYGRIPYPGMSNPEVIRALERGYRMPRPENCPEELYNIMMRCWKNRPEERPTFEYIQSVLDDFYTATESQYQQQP
T2 sequence (P37023 202-492 limits assumed): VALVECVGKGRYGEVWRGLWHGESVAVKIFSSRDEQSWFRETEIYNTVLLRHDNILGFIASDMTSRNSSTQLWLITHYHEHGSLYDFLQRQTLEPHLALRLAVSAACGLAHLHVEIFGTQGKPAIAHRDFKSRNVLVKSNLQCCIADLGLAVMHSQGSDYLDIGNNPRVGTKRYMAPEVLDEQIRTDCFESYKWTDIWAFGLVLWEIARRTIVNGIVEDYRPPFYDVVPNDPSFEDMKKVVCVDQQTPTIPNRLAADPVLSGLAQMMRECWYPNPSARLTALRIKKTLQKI

Q: For COc1cc(N2CCC(N3CCN(C)CC3)CC2)ccc1Nc1ncnc(Nc2ccccc2S(=O)(=O)C(C)C)n1 [ASP3026], which “ΔTm (thermal shift)” value ([1]; ALK2 WT, 2 μM protein, 12.5 μM compound) is on record?
A: 10.7 °C

Q: Which “mobility (passive range of motion)” value [2] does the source give for c1ccc2c(-c3cnn4cc(-c5ccc(N6CCNCC6)cc5)cnc34)ccnc2c1 [LDN-193189] here?
A: almost entirely preserved

Q: With c1cc(-c2cnn3cc(-c4ccc(N5CCNCC5)cc4)cnc23)c2cccnc2c1 [LDN-212854] as the compound, how does the “weight loss relative to vehicle-treated animals” value ([2]; 6 mg/kg i.p. twice daily) read?
A: 10%–25%

Q: What about the “mobility (passive range of motion)” value [2] of the same compound?
A: almost entirely preserved

Q: Which “cyclopia or mesoderm specification phenotypes” value (zebrafish embryos) does the source give for CN1CCN(CCOc2cc(OC3CCOCC3)c3c(Nc4c(Cl)ccc5c4OCO5)ncnc3c2)CC1 [saracatinib] here?
A: no evidence of cyclopia or phenotypes suggesting inhibition of mesoderm specification

Q: And the dorsalization phenotype (zebrafish embryos)?
A: dorsalized phenotype that increased in severity in a dose-dependent manner

Q: What about the IC50 [3] of the same compound?
A: 621 nM

Q: What about the IC50 [4] of the same compound?
A: 19 nM

Q: And the inhibition at 0.1 µM (ARG (ABL2))?
A: > 50%

Q: And the IC50 (TGF-β signaling)?
A: 305 nM

Q: And the “concentration up to which well tolerated” value (C2C12 cells)?
A: approximately 40 μM

Q: And the “concentration up to which well tolerated” value (HEK293 cells)?
A: approximately 40 μM

Q: What about the “inhibitor concentration at which TGF-β–dependent phosphorylation of SMAD2 was blocked” value [5] of the same compound?
A: 5 µM

Q: What about the inhibition at 0.1 µM (RIPK2) of the same compound?
A: > 50%

Q: And the t1/2 [6]?
A: approximately 40 hours

Q: What about the primary side effect ([6]; doses up to 125 mg daily for 9–12 months, phase II) of the same compound?
A: gastrointestinal discomfort

Q: What about the “daily dose up to which safe” value ([6]; healthy volunteers) of the same compound?
A: ≤ 250 mg

Q: What about the “adverse effects associated with higher doses” value ([6]; previous oncology trials, higher doses) of the same compound?
A: neutropenia and thrombocytopenia

Q: And the inhibition at 0.1 µM (TNIK)?
A: > 50%

Q: And the IC50 [7]?
A: 6130 nM

Q: What about the IC50 [8] of the same compound?
A: 6890 nM

Q: And the IC50 [9]?
A: 3900 nM

Q: What about the “BMP7-induced phosphorylation of SMAD1/5” value [10] of the same compound?
A: completely inhibited

Q: What about the inhibition at 0.1 µM (HCK) of the same compound?
A: > 50%

Q: And the IC50 (BMP2 signaling)?
A: 61 nM

Q: And the IC50 (BMP6 signaling)?
A: 8.9 nM

Q: What about the IC50 (BMP7 signaling) of the same compound?
A: 5.5 nM

Q: And the IC50 (BMP4 signaling)?
A: 131 nM

Q: What about the IC50 (activin A signaling) of the same compound?
A: 72 nM

Q: And the inhibition at 0.1 µM (LYN)?
A: > 50%

Q: For COc1cc2c(Nc3ccc(Br)cc3F)ncnc2cc1OCC1CCN(C)CC1 [vandetanib], which “HO formation / range of motion” value ([2]; 25 mg/kg i.p. twice daily for 28 days) is on record?
A: no evidence of improvement in radiographic HO or range-of motion; also recorded: did not block HO formation

Q: What about the “binding to ALK2 (in words)” value ([1]; Supplemental Figure 1C) of the same compound?
A: does not show any notable binding to ALK2
